Laboratory results: patent US9434725B2, “5-azaindazole compounds and methods of use” (priority 2012, dated 2016)
Where a name gives a salt, the structure may show the parent alone. Read-outs that look alike come from different tables or passages of the source.

Columns and labels:
[1] = target: PIM1 (Homo sapiens (Human), UniProt P11309); test: biochemical; assay type: biochemical; conditions: 10 μM ATP, 90 min, room temperature; read-out: PIM1 LC3K (KI)
In short: (§1)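 Pim-specific fluorescent peptide phosphorylated in 10 mM HEPES pH 7.2, 10 mM MgCl2, 0.01% Tween 20, 2 mM DTT for 90 min at room temperature, then stopped with EDTA. Product and substrate separated by microfluidic mobility shift; Ki derived from substrate conversion.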

[2] = target: PIM2 (Homo sapiens (Human), UniProt Q9P1W9); test: Pim kinase binding activity, Caliper LC3000 microfluidic peptide phosphorylation assay, PIM2; assay type: biochemical; conditions: 10 μM ATP, 90 min, room temperature; read-out: PIM2 LC3K (KI)
In short: as §1

[3] = target: PIM3 (Homo sapiens (Human), UniProt Q86V86); test: Pim kinase binding activity, Caliper LC3000 microfluidic peptide phosphorylation assay, PIM3; assay type: biochemical; conditions: 10 μM ATP, 90 min, room temperature; read-out: PIM3 LC3K (KI)
In short: as §1

[4] = system: BaF3 PIM1 cells; test: In vitro cell proliferation potency assay (Cell Titer Glo), BaF3 PIM1 cells; assay type: cell-based, murine; conditions: read-out: Prolif BaF3_PIM 1 (IC50)
Experimental: (§2) BaF3 parental line was obtained from the DSMZ repository. BaF3 lines transfected with PIM1 or PIM2 were generated. Mouse IL-3 was purchased from R&D Systems. G418 was purchased from Clontech. Media for BaF3 parental line contained RPMI, 10% FBS, 2 mM L-Glutamine, 2 ng/mL mIL-3. Media for BaF3 PIM1 & 2 lines contained RPMI, 10% FBS, 2 mM L-Glutamine, […]. Media for MM1.S (multiple myeloma cells) line contained RPMI, 10% FBS, 2 mM L-Glutamine.
(§3) BaF3, a murine interleukin-3 dependent pro-B cell line, parental cells, BaF3 PIM1 cells, BaF3 PIM2 cells, and MM1.S (multiple myeloma) cells were seeded at 2 k/well, 5 k/well, 5 k/well, and 10 k/well respectively, in a 384-well plate, at 45 μL/well. Test compound was added at 5 μL/well. BaF3 cells (parental and transfected) were incubated overnight, while MM1.S cells were incubated for 72 hours at 37° C., 5% CO2. CELL TITER GLO® Reagent (Promega) was added at 50 μL/well, the plates were incubated for 30 minutes, and their luminescence read on an HT Analyst. IC50/EC50 values for the test compound were calculated.

[5] = system: MM1.S (multiple myeloma) cells; test: In vitro cell proliferation potency assay (Cell Titer Glo), MM1.S cells; assay type: cell-based; conditions: read-out: Prolif MM1S ATP (EC50)
Experimental: as §2, §3

[6] = Mus musculus, BaF3, BaF3 cells transfected with PIM1, incubated overnight
[7] = Homo sapiens, MM1.S cells, 72 hours
[8] = Homo sapiens, MM1.S, 72 h, MM1.S cells, 72 hours
[9] = BaF3 cells transfected with PIM1, incubated overnight

Chain of PIM1 (P11309 whole entry): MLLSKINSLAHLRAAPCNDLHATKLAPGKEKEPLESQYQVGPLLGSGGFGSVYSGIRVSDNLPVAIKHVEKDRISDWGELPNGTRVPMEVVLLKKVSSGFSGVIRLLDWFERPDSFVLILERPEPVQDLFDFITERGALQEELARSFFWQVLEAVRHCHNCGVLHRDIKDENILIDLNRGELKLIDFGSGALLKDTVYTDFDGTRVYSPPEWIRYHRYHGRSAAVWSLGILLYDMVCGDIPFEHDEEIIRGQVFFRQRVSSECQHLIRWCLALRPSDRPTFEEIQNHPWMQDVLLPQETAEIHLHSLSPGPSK
Chain of PIM2 (Q9P1W9 whole entry): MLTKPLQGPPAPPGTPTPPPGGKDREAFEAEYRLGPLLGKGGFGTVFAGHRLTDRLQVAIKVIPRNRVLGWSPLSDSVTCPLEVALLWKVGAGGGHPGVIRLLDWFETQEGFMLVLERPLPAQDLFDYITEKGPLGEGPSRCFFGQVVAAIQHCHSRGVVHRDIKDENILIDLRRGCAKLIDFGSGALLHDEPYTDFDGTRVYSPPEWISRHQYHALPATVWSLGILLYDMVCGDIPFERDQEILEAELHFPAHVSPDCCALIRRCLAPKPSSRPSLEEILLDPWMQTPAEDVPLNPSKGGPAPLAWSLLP

Structure (SMILES)	Ki [1]	Ki [2]	Ki [3]	IC50 [4, 6]	EC50 [5, 7]	EC50 [5, 8]	IC50 [4, 9]	EC50 ([5]; MM1.S cells, 72 hours)	EC50 ([5]; Homo sapiens, MM1.S, 72 h)
COc1ccc(-n2ncc3cnc(-c4cncc(C)n4)cc32)nc1N1CCC[C@H](N)C1 [Compound 186, (S)-1-(3-methoxy-6-(6-(6-methylpyrazin-2-yl)-1H-pyrazolo[4,3-c]pyridin-1-yl)pyridin-2-yl)piperidin-3-amine]	0.0212 nM	0.134 nM	0.013 nM	220 nM	508 nM	–	–	–	–
Cn1ncc(-c2cc3c(cn2)cnn3-c2ccccc2F)c1N1CCC(N)CC1 [Compound 316, 1-(4-(1-(2-fluorophenyl)-1H-pyrazolo[4,3-c]pyridin-6-yl)-1-methyl-1H-pyrazol-5-yl)piperidin-4-amine]	15.5 nM	336 nM	47.5 nM	> 25000 nM	–	> 25000 nM	–	–	–
OCc1cncc(-c2cc3c(cn2)cnn3-c2cccc(N3CCNCC3)n2)n1 [Compound 273, (6-(1-(6-(piperazin-1-yl)pyridin-2-yl)-1H-pyrazolo[4,3-c]pyridin-6-yl)pyrazin-2-yl)methanol dihydrochloride]	0.117 nM	2.63 nM	0.036 nM	629 nM	–	–	–	–	5500 nM
Cn1cc(-c2cc3c(cn2)cnn3-c2cccc(N3CCNC[C@H](O)C3)n2)cn1 [Compound 231, (S)-1-(6-(6-(1-Methyl-1H-pyrazol-4-yl)-1H-pyrazolo[4,3-c]pyridin-1-yl)pyridin-2-yl)-1,4-diazepan-6-ol]	0.078 nM	1.39 nM	0.032 nM	–	–	2200 nM	–	–	–
Cc1cncc(-c2cc3c(cn2)cnn3-c2ccc3c(n2)CC(CN)CO3)n1 (centres unmarked) [Compound 292, (6-(6-(6-methylpyrazin-2-yl)-1H-pyrazolo[4,3-c]pyridin-1-yl)-3,4-dihydro-2H-pyrano[3,2-b]pyridin-3-yl)methanamine]	1.6 nM	19.4 nM	0.796 nM	–	11700 nM	–	–	–	–
N#CCn1cc(-c2cc3c(cn2)cnn3-c2cccc(N3CCCNCC3)n2)cn1 [Compound 155, 2-(4-(1-(6-(1,4-Diazepan-1-yl)pyridin-2-yl)-1H-pyrazolo[4,3-c]pyridin-6-yl)-1H-pyrazol-1-yl)acetonitrile]	–	1.49 nM	0.109 nM	–	–	3500 nM	–	–	–
Cc1cncc(-c2cc3c(cn2)cnn3-c2cccc(OC3CCCC(N)C3)n2)n1 (centres unmarked) [Compound 311, 3-(6-(6-(6-methylpyrazin-2-yl)-1H-pyrazolo[4,3-c]pyridin-1-yl)pyridin-2-yloxy)cyclohexanamine]	0.069 nM	–	0.036 nM	1000 nM	–	5500 nM	–	–	–
FCCn1cc(-c2cc3c(cn2)cnn3-c2cccc(N3CCCNCC3)n2)cn1 [Compound 153, 1-(6-(1,4-Diazepan-1-yl)pyridin-2-yl)-6-(1-(2-fluoroethyl)-1H-pyrazol-4-yl)-1H-pyrazolo[4,3-c]pyridine]	–	1.37 nM	0.085 nM	–	–	2500 nM	–	–	–
FC(F)(F)Cn1cc(-c2cc3c(cn2)cnn3-c2cccc(N3CCCNCC3)n2)cn1 [Compound 154, 1-(6-(1,4-Diazepan-1-yl)pyridin-2-yl)-6-(1-(2,2,2-trifluoroethyl)-1H-pyrazol-4-yl)-1H-pyrazolo[4,3-c]pyridine]	–	1.01 nM	0.175 nM	–	–	2300 nM	–	–	–
Cc1cncc(-c2cc3c(cn2)cnn3-c2cccc(N3CCCC4(CN(C=O)C4)C3)n2)n1 [Compound 291, 6-(6-(6-(6-methylpyrazin-2-yl)-1H-pyrazolo[4,3-c]pyridin-1-yl)pyridin-2-yl)-2,6-diazaspiro[3.5]nonane-2-carbaldehyde]	4.41 nM	40.9 nM	3.42 nM	–	–	–	–	–	> 25000 nM

More lines, main results first:

Ki [1]	Ki [2]	Ki [3]	IC50 [4, 6]	EC50 [5, 7]	EC50 [5, 8]	IC50 [4, 9]	EC50 ([5]; MM1.S cells, 72 hours)	Structure (SMILES)	EC50 ([5]; Homo sapiens, MM1.S, 72 h)
0.061 nM	1.48 nM	0.112 nM	976 nM	7200 nM	–	–	–	Cc1cncc(-c2cc3c(cn2)cnn3-c2cccc(N3CCCC4(CNC4)C3)n2)n1 [Compound 293, 1-(6-(2,6-diazaspiro[3.5]nonan-6-yl)pyridin-2-yl)-6-(6-methylpyrazin-2-yl)-1H-pyrazolo[4,3-c]pyndine]	–
0.136 nM	1.72 nM	0.057 nM	2000 nM	–	696 nM	–	–	C#Cc1cncc(-c2cc3c(cn2)cnn3-c2cccc(N3CCNCC3)n2)n1 [Compound 315, 6-(6-ethynylpyrazin-2-yl)-1-(6-(piperazin-1-yl)pyridin-2-yl)-1H-pyrazolo[4,3-c]pyridine]	–
0.02 nM	1.83 nM	0.025 nM	385 nM	–	4600 nM	–	–	c1cc(N2CCNCC2)nc(-n2ncc3cnc(-c4cncc(N5CCC5)n4)cc32)c1 [Compound 284, 6-(6-(azetidin-1-yl)pyrazin-2-yl)-1-(6-(piperazin-1-yl)pyridin-2-yl)-1H-pyrazolo[4,3-c]pyridine]	–
0.095 nM	0.893 nM	0.0498 nM	284 nM	–	3900 nM	–	–	Cc1cncc(-c2cc3c(cn2)cnn3-c2cccc(N3CCNCC3)n2)n1 [Compound 123, 6-(6-methylpyrazin-2-yl)-1-(6-(piperazin-1-yl)pyridin-2-yl)-1H-pyrazolo[4,3-c]pyridine]	–
0.514 nM	2.37 nM	–	772 nM	–	9300 nM	–	–	Cc1cncc(-c2cc3c(cn2)cnn3-c2cccc(C3(F)CCCNC3)n2)n1 (centres unmarked) [Compound 294, 1-(6-(3-fluoropiperidin-3-yl)pyridin-2-yl)-6-(6-methylpyrazin-2-yl)-1H-pyrazolo[4,3-c]pyridine]	–
0.067 nM	0.234 nM	–	–	–	–	194 nM	1200 nM	Cc1cncc(-c2cc3c(cn2)cnn3-c2cccc(C3CNCCC3(F)F)n2)n1 (single isomer, unassigned) [Compound 272]	–
0.044 nM	2.28 nM	–	112 nM	–	6400 nM	–	–	CCNc1cncc(-c2cc3c(cn2)cnn3-c2cccc(N3CCNCC3)n2)n1 [Compound 285, N-ethyl-6-(1-(6-(piperazin-1-yl)pyridin-2-yl)-1H-pyrazolo[4,3-c]pyridin-6-yl)pyrazin-2-amine]	–
–	1.71 nM	0.026 nM	–	–	2700 nM	–	–	CC#Cc1cncc(-c2cc3c(cn2)cnn3-c2cccc(N3CCNCC3)n2)n1 [Compound 317, 1-(6-(piperazin-1-yl)pyridin-2-yl)-6-(6-(prop-1-ynyl)pyrazin-2-yl)-1H-pyrazolo[4,3-c]pyridine]	–
–	4.59 nM	0.083 nM	–	–	2700 nM	–	–	CCc1cncc(-c2cc3c(cn2)cnn3-c2cccc(N3CCNC[C@@H](O)C3)n2)c1 (single isomer, unassigned) [Compound 122]	–
–	3.32 nM	0.081 nM	–	–	8600 nM	–	–	CCn1cncc(-c2cc3c(cn2)cnn3-c2cccc(N3CCNCC3)n2)c1=O [Compound 151, 3-ethyl-5-[1-(6-piperazin-1-yl-2-pyridyl)pyrazolo[4,3-c]pyridin-6-yl]pyrimidin-4-one]	–
–	8.05 nM	0.182 nM	–	–	8900 nM	–	–	O[C@H]1CCC[C@@H]1Nc1cncc(-c2cc3c(cn2)cnn3-c2cccc(N3CCNCC3)n2)n1 [Compound 283]	–
–	1.16 nM	0.05 nM	–	–	2600 nM	–	–	c1cc(N2CCNCC2)nc(-n2ncc3cnc(-c4cnccn4)cc32)c1 [Compound 144, 1-(6-piperazin-1-yl-2-pyridyl)-6-pyrazin-2-yl-pyrazolo[4,3-c]pyridine]	–
0.023 nM	0.664 nM	0.026 nM	–	2500 nM	–	–	–	Nc1cncc(-c2cc3c(cn2)cnn3-c2cccc(N3CCCNCC3)n2)n1 [Compound 247, 6-(1-(6-(1,4-diazepan-1-yl)pyridin-2-yl)-1H-pyrazolo[4,3-c]pyridin-6-yl)pyrazin-2-amine]	–
0.189 nM	2.45 nM	–	–	–	–	1400 nM	4900 nM	Cc1cncc(-c2cc3c(cn2)cnn3-c2cccc(C3CNCCC3(F)F)n2)n1 (single isomer, unassigned) [Compound 271]	–
–	4.74 nM	0.806 nM	–	–	5000 nM	–	–	Cc1cncc(-c2cc3c(cn2)cnn3-c2cccc(N3CC[C@@H](N)C3)n2)n1 [Compound 168, (3R)-1-[6-[6-(6-methylpyrazin-2-yl)pyrazolo[4,3-c]pyridin-1-yl]-2-pyridyl]pyrrolidin-3-amine]	–
